System: CYP1A2
Test: MEROD assay in live Hepa1c1c7 cells (CYP1A2 induction)
Type: cell-based, mouse
Settings: Hepa1c1c7 cells incubated with 10 μM compound
Description: FIG. 1 illustrates how caffeine is primarily metabolized to paraxanthine via CYP1A2 enzyme in a human, according to some embodiments. The MEROD (methoxyresorufin-O-demethylase) assay measures the activity of the enzyme (CYP1A2) that converts methoxyresorufin (probe substrate) to resorufin (demethylation) in the presence of NADPH. The resulting resorufin concentration can be measured using a fluorescence reader by setting the excitation and emission wavelengths at 544 and 590 nm, respectively.
For MEROD assay in live cells, Hepa1c1c7 cells were cultured in either 6-well or 24-well-plates. For the 24-well plate experiment, after confluent cells were incubated for approximately 20 hours with either resorufin, nitro-resorufin, chloro-resorufin, 3-MC or DMSO (in triplicates), culture media was removed and 180 μL fresh culture media containing […] methoxyresorufin was added per well. After 1 hour incubation at 37° C., 100 μL aliquot was taken from each well and the formation of resorufin was measured by fluorescence. […] After 5 hours incubation at 37° C., 100 μL aliquot was taken from each well, centrifuged at 12,000 g at RT for ˜5 min and the supernatants were placed into wells of a 96-well fluorescence plate and the formation of resorufin was measured by fluorescence.

O=c1c2ccc(Cl)cc2nc2n1CCc1c-2[nH]c2ccccc12 [chloro-rutaecarpine]
formation of resorufin from live cells (MEROD): no marked difference
